Assay results taken from patent US12129237B2, “Substituted diaminocarboxamide and diaminocarbonitrile pyrimidines, compositions thereof, and methods of treatment therewith” (SIGNAL PHARMACEUTICALS, LLC, priority 2011, dated 2024).

target: T1, JNK1 (Homo sapiens, UniProt P45983); test: JNK1 biochemical assays (one or more of: time resolved fluorescence, Z'-LYTE Cascade, radioactive); details: one or more of the JNK1 biochemical assays; read-out: Act. Level (JNK1 IC50 activity level)
T1 construct: purchased Carna Biosciences
T1 sequence (P45983 whole entry): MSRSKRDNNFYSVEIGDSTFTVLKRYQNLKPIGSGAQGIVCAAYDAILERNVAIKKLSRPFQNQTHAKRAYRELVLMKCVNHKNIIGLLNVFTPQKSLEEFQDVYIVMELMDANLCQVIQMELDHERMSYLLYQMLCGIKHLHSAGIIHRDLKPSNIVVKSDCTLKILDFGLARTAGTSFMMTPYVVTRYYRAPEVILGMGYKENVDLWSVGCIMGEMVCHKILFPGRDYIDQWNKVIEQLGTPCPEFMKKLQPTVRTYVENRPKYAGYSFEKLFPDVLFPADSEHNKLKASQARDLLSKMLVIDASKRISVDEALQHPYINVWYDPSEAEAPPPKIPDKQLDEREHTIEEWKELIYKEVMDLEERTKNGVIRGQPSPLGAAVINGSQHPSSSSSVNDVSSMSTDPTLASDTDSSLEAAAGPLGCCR

Structure (SMILES)	IC50 [µM]
CNc1nc(N[C@H]2CC[C@H](O)CC2)ncc1C(N)=O [Example 270, 2-((1r,4r)-4-hydroxycyclohexylamino)-4-(methylamino)pyrimidine-5-carboxamide]	0.2 to 0.8
CCO[C@H]1CC[C@H](Nc2ncc(C(N)=O)c(N[C@@H](C)C(C)C)n2)CC1 [Example 282, 2-((1r,4S)-4-ethoxycyclohexylamino)-4-((S)-3-methylbutan-2-ylamino)pyrimidine-5-carboxamide]	< 0.2
CO[C@H]1CC[C@H](Nc2ncc(C(N)=O)c(N[C@@H](C)C(C)C)n2)CC1 [Example 283, 2-((1r,4S)-4-methoxycyclohexylamino)-4-((S)-3-methylbutan-2-ylamino)pyrimidine-5-carboxamide]	< 0.2
CC(C)[C@H](C)Nc1nc(N[C@H]2CC[C@H](O)CC2)ncc1C(N)=O [Example 284, 2-((1r,4S)-4-hydroxycyclohexylamino)-4-((S)-3-methylbutan-2-ylamino)pyrimidine-5-carboxamide]	< 0.2
C[C@@H]1CC[C@@H](Nc2nc(NC3CCC3)ncc2C(N)=O)C[C@H]1O [Example 285, 2-(cyclobutylamino)-4-((1R,3R,4R)-3-hydroxy-4-methylcyclohexylamino)pyrimidine-5-carboxamide]	< 0.2
CCC(C)(C)Nc1ncc(C(N)=O)c(N[C@@H]2CC[C@@H](C)[C@H](O)C2)n1 [Example 286, 4-((1R,3R,4R)-3-hydroxy-4-methylcyclohexylamino)-2-(tert-pentylamino)pyrimidine-5-carboxamide]	< 0.2
C[C@@H]1CC[C@@H](Nc2nc(NC3(C)CCC3)ncc2C(N)=O)C[C@H]1O [Example 287, 4-((1R,3R,4R)-3-hydroxy-4-methylcyclohexylamino)-2-(1-methylcyclobutylamino)pyrimidine-5-carboxamide]	< 0.2
CC(C)(C)Nc1nc(NC23CCC(F)(CC2)CC3)ncc1C(N)=O [Example 289, 4-(tert-butylamino)-2-(4-fluorobicyclo[2.2.2]octan-1-ylamino)pyrimidine-5-carboxamide]	< 0.2
CCO[C@H]1CC[C@H](Nc2ncc(C(N)=O)c(N[C@H](C)C(C)C)n2)CC1 [Example 290, 2-((1r,4R)-4-ethoxycyclohexylamino)-4-((R)-3-methylbutan-2-ylamino)pyrimidine-5-carboxamide]	< 0.2
CO[C@H]1CC[C@H](Nc2ncc(C(N)=O)c(N[C@H](C)C(C)C)n2)CC1 [Example 291, 2-((1r,4R)-4-methoxycyclohexylamino)-4-((R)-3-methylbutan-2-ylamino)pyrimidine-5-carboxamide]	< 0.2
CC(C)[C@@H](C)Nc1nc(N[C@H]2CC[C@H](O)CC2)ncc1C(N)=O [Example 292, 2-((1r,4R)-4-hydroxycyclohexylamino)-4-((R)-3-methylbutan-2-ylamino)pyrimidine-5-carboxamide]	< 0.2
CCO[C@H]1CC[C@H](Nc2ncc(C(N)=O)c(N[C@@H](C)C3CCC3)n2)CC1 [Example 293, 4-((S)-1-cyclobutylethylamino)-2-((1r,4S)-4-ethoxycyclohexylamino)pyrimidine-5-carboxamide]	< 0.2
CCO[C@H]1CC[C@H](Nc2ncc(C(N)=O)c(N[C@H](C)C3CCC3)n2)CC1 [Example 294, 4-((R)-1-cyclobutylethylamino)-2-((1r,4R)-4-ethoxycyclohexylamino)pyrimidine-5-carboxamide]	1 to 10
CO[C@H]1CC[C@H](Nc2ncc(C(N)=O)c(N[C@@H](C)C3CCC3)n2)CC1 [Example 295, 4-((S)-1-cyclobutylethylamino)-2-((1r,4S)-4-methoxycyclohexylamino)pyrimidine-5-carboxamide]	< 0.2
CO[C@H]1CC[C@H](Nc2ncc(C(N)=O)c(N[C@H](C)C3CCC3)n2)CC1 [Example 296, 4-((R)-1-cyclobutylethylamino)-2-((1r,4R)-4-methoxycyclohexylamino)pyrimidine-5-carboxamide]	1 to 10
C[C@H](Nc1nc(N[C@H]2CC[C@H](O)CC2)ncc1C(N)=O)C1CCC1 [Example 297, 4-((S)-1-cyclobutylethylamino)-2-((1r,4S)-4-hydroxycyclohexylamino)pyrimidine-5-carboxamide]	< 0.2
C[C@@H](Nc1nc(N[C@H]2CC[C@H](O)CC2)ncc1C(N)=O)C1CCC1 [Example 298, 4-((R)-1-cyclobutylethylamino)-2-((1r,4R)-4-hydroxycyclohexylamino)pyrimidine-5-carboxamide]	< 0.2
CC(C)(C)Nc1nc(N[C@@H]2CCC[C@@H](O)C2)ncc1C(N)=O [Example 299, 4-(tert-butylamino)-2-((1R,3R)-3-hydroxycyclohexylamino)pyrimidine-5-carboxamide]	< 0.2
CC(C)(C)Nc1nc(N[C@H]2CCCOC2)ncc1C(N)=O [Example 300, (S)-4-(tert-butylamino)-2-(tetrahydro-2H-pyran-3-ylamino)pyrimidine-5-carboxamide]	< 0.2
CC(C)(C)Nc1nc(N[C@@H]2CCCOC2)ncc1C(N)=O [Example 301, (R)-4-(tert-butylamino)-2-(tetrahydro-2H-pyran-3-ylamino)pyrimidine-5-carboxamide]	< 0.2

Other lines, results leading:

IC50 [µM]	Structure (SMILES)
< 0.2	C[C@H](Nc1nc(N[C@H]2CC[C@H](O)CC2)ncc1C(N)=O)C1CC1 [Example 263, 4-((S)-1-cyclopropylethylamino)-2-((1r,4S)-4-hydroxycyclohexylamino)pyrimidine-5-carboxamide]
< 0.2	C[C@@H]1CC[C@@H](Nc2nc(NC34CC(C3)C4)ncc2C(N)=O)C[C@H]1O [Example 264, 2-(bicyclo[1.1.1]pentan-1-ylamino)-4-((1R,3R,4R)-3-hydroxy-4-methylcyclohexylamino)pyrimidine-5-carboxamide]
< 0.2	CC1CCC1Nc1nc(N[C@H]2CC[C@H](OCC(F)(F)F)CC2)ncc1C(N)=O (some centres unmarked) [Example 265, 4-(2-methylcyclobutylamino)-2-((1r,4r)-4-(2,2,2-trifluoroethoxy)cyclohexylamino)pyrimidine-5-carboxamide]
< 0.2	NC(=O)c1cnc(N[C@H]2CC[C@H](OCC(F)(F)F)CC2)nc1N[C@@H]1CCC[C@@H]1CO [Example 266, 4-((1R,2S)-2-(hydroxymethyl)cyclopentylamino)-2-((1r,4R)-4-(2,2,2-trifluoroethoxy)cyclohexylamino)pyrimidine-5-carboxamide]
< 0.2	NC(=O)c1cnc(NC23CCC(F)(CC2)CC3)nc1N[C@@H]1CCC[C@H](O)C1 [Example 267, 2-(4-fluorobicyclo[2.2.2]octan-1-ylamino)-4-((1R,3S)-3-hydroxycyclohexylamino)pyrimidine-5-carboxamide]
< 0.2	NC(=O)c1cnc(N[C@H]2CC[C@H](OC(F)F)CC2)nc1N[C@@H]1CCC[C@@H]1CO [Example 268, 2-((1r,4R)-4-(difluoromethoxy)cyclohexylamino)-4-((1R,2S)-2-(hydroxymethyl)cyclopentylamino)pyrimidine-5-carboxamide]
< 0.2	CCNc1nc(N[C@H]2CC[C@H](O)CC2)ncc1C(N)=O [Example 269, 4-(ethylamino)-2-((1r,4r)-4-hydroxycyclohexylamino)pyrimidine-5-carboxamide]
< 0.2	COCC(C)(C)Nc1nc(N[C@H]2CC[C@H](O)CC2)ncc1C(N)=O [Example 271, 2-((1r,4r)-4-hydroxycyclohexylamino)-4-(1-methoxy-2-methylpropan-2-ylamino)pyrimidine-5-carboxamide]
< 0.2	C[C@@H]1CC[C@@H](Nc2nc(NC3CC3)ncc2C(N)=O)C[C@H]1O [Example 272, 2-(cyclopropylamino)-4-((1R,3R,4R)-3-hydroxy-4-methylcyclohexylamino)pyrimidine-5-carboxamide]
< 0.2	CCO[C@H]1CC[C@H](Nc2ncc(C(N)=O)c(NC(C)(C)C(C)C)n2)CC1 [Example 273, 4-(2,3-dimethylbutan-2-ylamino)-2-((1r,4r)-4-ethoxycyclohexylamino)pyrimidine-5-carboxamide]
< 0.2	CO[C@H]1CC[C@H](Nc2ncc(C(N)=O)c(NC(C)(C)C(C)C)n2)CC1 [Example 274, 4-(2,3-dimethylbutan-2-ylamino)-2-((1r,4r)-4-methoxycyclohexylamino)pyrimidine-5-carboxamide]
< 0.2	CC(C)C(C)(C)Nc1nc(N[C@H]2CC[C@H](O)CC2)ncc1C(N)=O [Example 275, 4-(2,3-dimethylbutan-2-ylamino)-2-((1r,4r)-4-hydroxycyclohexylamino)pyrimidine-5-carboxamide]
< 0.2	CCO[C@H]1CC[C@H](Nc2ncc(C(N)=O)c(N[C@@H](C)C(C)(C)C)n2)CC1 [Example 276, 4-((S)-3,3-dimethylbutan-2-ylamino)-2-((1r,4S)-4-ethoxycyclohexylamino)pyrimidine-5-carboxamide]
< 0.2	CCO[C@H]1CC[C@H](Nc2ncc(C(N)=O)c(N[C@H](C)C(C)(C)C)n2)CC1 [Example 277, 4-((R)-3,3-dimethylbutan-2-ylamino)-2-((1r,4R)-4-ethoxycyclohexylamino)pyrimidine-5-carboxamide]
< 0.2	CO[C@H]1CC[C@H](Nc2ncc(C(N)=O)c(N[C@@H](C)C(C)(C)C)n2)CC1 [Example 278, 4-((S)-3,3-dimethylbutan-2-ylamino)-2-((1r,4S)-4-methoxycyclohexylamino)pyrimidine-5-carboxamide]
< 0.2	CO[C@H]1CC[C@H](Nc2ncc(C(N)=O)c(N[C@H](C)C(C)(C)C)n2)CC1 [Example 279, 4-((R)-3,3-dimethylbutan-2-ylamino)-2-((1r,4R)-4-methoxycyclohexylamino)pyrimidine-5-carboxamide]
< 0.2	C[C@H](Nc1nc(N[C@H]2CC[C@H](O)CC2)ncc1C(N)=O)C(C)(C)C [Example 280, 4-((S)-3,3-dimethylbutan-2-ylamino)-2-((1r,4S)-4-hydroxycyclohexylamino)pyrimidine-5-carboxamide]
< 0.2	C[C@@H](Nc1nc(N[C@H]2CC[C@H](O)CC2)ncc1C(N)=O)C(C)(C)C [Example 281, 4-((R)-3,3-dimethylbutan-2-ylamino)-2-((1r,4R)-4-hydroxycyclohexylamino)pyrimidine-5-carboxamide]
